Test results as given in patent publication US12655116B2, “Substituted isophthalic acid diamides” (Bayer Aktiengesellschaft, priority 2020, dated 2026).

Legend:
[1] = system: ABUTH; experiment: Pre-emergence herbicidal action against ABUTH; format: in vivo, Abutilon theophrasti; settings: Abutilon theophrasti, 504 h; for pest or weed control at 80 g/ha: scored visually after 3 weeks vs untreated controls (100% = plants have died, 0% = like control plants); for pest or weed control at 20 g/ha: dosage 20 g/ha, scored visually after 3 weeks vs untreated controls, 100% = plants have died, 0% = like control plants, read-out: Pre-emergence action against ABUTH (herbicidal activity in percent)
Outline: (§1)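 Herbicidal effect was assessed 3 weeks after treatment by visual comparison with untreated controls, 100% denoting dead plants. Aqueous WP or EC preparations had been applied at 600 to 800 l/ha with 0.2% wetting agent to the soil covering freshly sown seeds.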

[2] = system: ALOMY; experiment: Pre-emergence herbicidal action against ALOMY; format: in vivo, Alopecurus myosuroides; settings: Alopecurus myosuroides, 504 h, pre-emergence; for pest or weed control at 80 g/ha: scored visually after 3 weeks vs untreated controls (100% = plants have died, 0% = like control plants)
Outline: as §1

[3] = system: AMARE; experiment: Pre-emergence herbicidal action against AMARE; format: in vivo, Amaranthus retroflexus; settings: Amaranthus retroflexus, 504 h, scored visually after 3 weeks vs untreated controls, 100% = plants have died, 0% = like control plants
Outline: as §1

[4] = system: AVEFA; experiment: Pre-emergence herbicidal action against AVEFA; format: in vivo, Avena fatua; settings: Avena fatua, 504 h, pre-emergence
Outline: as §1

[5] = system: ECHCG; experiment: Pre-emergence herbicidal action against ECHCG; format: in vivo, Echinochloa crus-galli; settings: Echinochloa crus-galli, 504 h
Outline: as §1

[6] = system: LOLRI; experiment: Pre-emergence herbicidal action against LOLRI; format: in vivo, Lolium rigidum; settings: Lolium rigidum, 504 h, 80 g/ha
Outline: as §1

[7] = system: MATIN; experiment: Pre-emergence herbicidal action against MATIN; format: in vivo, Matricaria inodora; settings: Tripleurospermum inodorum, 504 h; for pest or weed control at 20 g/ha: dosage 20 g/ha; for pest or weed control at 80 g/ha: dosage 80 g/ha
Outline: as §1

[8] = system: PHBPU; experiment: Pre-emergence herbicidal action against PHBPU; format: in vivo, Pharbitis purpurea; settings: Ipomoea purpurea, 504 h; for pest or weed control at 80 g/ha: dosage 80 g/ha; for pest or weed control at 20 g/ha: dosage 20 g/ha
Outline: as §1

[9] = system: POLCO; experiment: Pre-emergence herbicidal action against POLCO; format: in vivo, Polygonum convolvulus; settings: Fallopia convolvulus, 504 h; for pest or weed control at 80 g/ha: dosage 80 g/ha
Outline: as §1

[10] = system: SETVI; experiment: Pre-emergence herbicidal action against SETVI; format: in vivo, Setaria viridis; settings: Setaria viridis, 504 h; for pest or weed control at 20 g/ha: dosage 20 g/ha; for pest or weed control at 80 g/ha: dosage 80 g/ha
Outline: as §1

[11] = system: VERPE; experiment: Pre-emergence herbicidal action against VERPE; format: in vivo, Veronica persica; settings: Veronica persica, 504 h, dosage 80 g/ha
Outline: as §1

[12] = system: VIOTR; experiment: Pre-emergence herbicidal action against VIOTR; format: in vivo, Viola tricolor; settings: Viola tricolor, 504 h; for pest or weed control at 20 g/ha: dosage 20 g/ha; for pest or weed control at 80 g/ha: dosage 80 g/ha
Outline: as §1

[13] = system: DIGSA; experiment: Pre-emergence herbicidal action against DIGSA; format: in vivo, Digitaria sanguinalis; settings: Digitaria sanguinalis, 504 h; for pest or weed control at 20 g/ha: dosage 20 g/ha; for pest or weed control at 80 g/ha: dosage 80 g/ha
Outline: as §1

[14] = system: ABUTH; experiment: Post-emergence herbicidal action against ABUTH; format: in vivo, Abutilon theophrasti; settings: Abutilon theophrasti, 504 h, visual assessment about 3 weeks after treatment vs untreated controls; for pest or weed control at 20 g/ha: dosage 20 g/ha
Outline: (§2)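 Post-emergence greenhouse test; one-leaf stage, 2–3 wk post-sowing, sandy loam. Foliar spray of WP/EC in water, 600–800 l/ha, +0.2% wetting agent. Visual % action at ~3 wk vs untreated (100% = plants dead).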

[15] = system: ALOMY; experiment: Post-emergence herbicidal action against ALOMY; format: in vivo, Alopecurus myosuroides; settings: Alopecurus myosuroides, 504 h, dosage 20 g/ha, visual assessment about 3 weeks after treatment vs untreated controls
Outline: as §2

[16] = system: AMARE; experiment: Post-emergence herbicidal action against AMARE; format: in vivo, Amaranthus retroflexus; settings: Amaranthus retroflexus, 504 h, 20 g/ha, visual assessment about 3 weeks after treatment, 100% = plants have died, 0% = like control plants
Outline: as §2

[17] = system: ECHCG; experiment: Post-emergence herbicidal action against ECHCG; format: in vivo, Echinochloa crus-galli; settings: Echinochloa crus-galli, 504 h; for pest or weed control at 20 g/ha: dosage 20 g/ha
Outline: as §2

[18] = system: MATIN; experiment: Post-emergence herbicidal action against MATIN; format: in vivo, Matricaria inodora; settings: Tripleurospermum inodorum, 504 h; for pest or weed control at 20 g/ha: dosage 20 g/ha
Outline: as §2

[19] = system: PHBPU; experiment: Post-emergence herbicidal action against PHBPU; format: in vivo, Pharbitis purpurea; settings: Ipomoea purpurea, 504 h, dosage 20 g/ha
Outline: as §2

[20] = system: SETVI; experiment: Post-emergence herbicidal action against SETVI; format: in vivo, Setaria viridis; settings: Setaria viridis, 504 h; for pest or weed control at 5 g/ha: dosage 5 g/ha; for pest or weed control at 20 g/ha: dosage 20 g/ha
Outline: as §2

[21] = system: VIOTR; experiment: Post-emergence herbicidal action against VIOTR; format: in vivo, Viola tricolor; settings: Viola tricolor, 504 h
Outline: as §2

[22] = system: DIGSA; experiment: Post-emergence herbicidal action against DIGSA; format: in vivo, Digitaria sanguinalis; settings: Digitaria sanguinalis, 504 h
Outline: as §2

[23] = system: VERPE; experiment: Post-emergence herbicidal action against VERPE; format: in vivo, Veronica persica; settings: Veronica persica, 504 h, 20 g/ha
Outline: as §2

[24] = 20 g/ha, scored visually after 3 weeks, 100% = plants have died, 0% = like control plants

In the case of `Cn1nnnc1NC(=O)c1ccc(C(F)(F)F)c(C(=O)NC2CC2)c1C1CC1` [Example 1-288], the pest or weed control at 80 g/ha [1] is reported as 100%, the pest or weed control at 20 g/ha [1] is reported as 100% and the pest or weed control at 80 g/ha [2] is reported as 90%. It also gave a pest or weed control at 20 g/ha [3] of 100%, a pest or weed control at 80 g/ha [3] of 100% and a pest or weed control at 80 g/ha [4] of 90%. It also gave a pest or weed control at 20 g/ha ([5]; 20 g/ha) of 80%, a pest or weed control at 80 g/ha [5] of 100% and a pest or weed control at 80 g/ha [6] of 80%. The pest or weed control at 20 g/ha [7] was 100%, the pest or weed control at 80 g/ha [7] was 100% and the pest or weed control at 80 g/ha [8] was 100%. For the same compound, the pest or weed control at 80 g/ha [9] was 80%, the pest or weed control at 20 g/ha [10] was 100% and the pest or weed control at 80 g/ha [10] was 100%. It also gave a pest or weed control at 80 g/ha [11] of 100%, a pest or weed control at 20 g/ha [12] of 100% and a pest or weed control at 80 g/ha [12] of 100%. The pest or weed control at 20 g/ha [13] was 100%, the pest or weed control at 80 g/ha [13] was 100% and the pest or weed control at 5 g/ha ([14]; dosage 5 g/ha) was 80%. The pest or weed control at 20 g/ha [14] was 80%, the pest or weed control at 20 g/ha [15] was 90% and the pest or weed control at 20 g/ha [16] was 100%. It also gave a pest or weed control at 5 g/ha ([17]; dosage 5 g/ha) of 80%, a pest or weed control at 20 g/ha [17] of 80% and a pest or weed control at 5 g/ha ([18]; dosage 5 g/ha) of 90%. For the same compound, the pest or weed control at 20 g/ha [18] was 100%, the pest or weed control at 20 g/ha [19] was 80% and the pest or weed control at 5 g/ha [20] was 80%. For the same compound, the pest or weed control at 20 g/ha [20] was 100%, the pest or weed control at 5 g/ha [21] was 90% and the pest or weed control at 20 g/ha [21] was 90%. For the same compound, the pest or weed control at 5 g/ha [22] was 90% and the pest or weed control at 20 g/ha [22] was 100%.
For `CCn1nnnc1NC(=O)c1ccc(I)c(C(=O)NC2CC2)c1Cl` [Example 2-197], the pest or weed control at 80 g/ha [1] was 100%, the pest or weed control at 80 g/ha [2] was 90% and the pest or weed control at 20 g/ha [3] was 100%. It also gave a pest or weed control at 80 g/ha [3] of 100%, a pest or weed control at 80 g/ha [4] of 100% and a pest or weed control at 20 g/ha [4, 24] of 80%. It also gave a pest or weed control at 80 g/ha [5] of 100%, a pest or weed control at 80 g/ha [6] of 90% and a pest or weed control at 20 g/ha [7] of 80%. It also gave a pest or weed control at 80 g/ha [7] of 100%, a pest or weed control at 20 g/ha [8] of 80% and a pest or weed control at 80 g/ha [8] of 90%. The pest or weed control at 80 g/ha [9] was 100%, the pest or weed control at 20 g/ha [10] was 90% and the pest or weed control at 80 g/ha [10] was 100%. It also gave a pest or weed control at 80 g/ha [11] of 90%, a pest or weed control at 20 g/ha [12] of 100% and a pest or weed control at 80 g/ha [12] of 100%. It also gave a pest or weed control at 20 g/ha [13] of 100%, a pest or weed control at 80 g/ha [13] of 100% and a pest or weed control at 20 g/ha [14] of 80%. It also gave a pest or weed control at 20 g/ha [15] of 90%, a pest or weed control at 20 g/ha [16] of 90% and a pest or weed control at 20 g/ha [17] of 90%. For the same compound, the pest or weed control at 20 g/ha [18] was 80%, the pest or weed control at 5 g/ha [20] was 80% and the pest or weed control at 20 g/ha [20] was 100%. It also gave a pest or weed control at 5 g/ha [21] of 80%, a pest or weed control at 20 g/ha [21] of 100% and a pest or weed control at 20 g/ha [22] of 90%.
For `CCc1c(C(=O)Nc2nnnn2CC)ccc(C(F)F)c1C(=O)NC1CC1` [Example 2-279], the pest or weed control at 80 g/ha [1] was 100%, the pest or weed control at 20 g/ha [1] was 80% and the pest or weed control at 80 g/ha [2] was 90%. The pest or weed control at 20 g/ha [2, 24] was 80%, the pest or weed control at 20 g/ha [3] was 100% and the pest or weed control at 80 g/ha [3] was 100%. The pest or weed control at 80 g/ha [4] was 100%, the pest or weed control at 80 g/ha [5] was 100% and the pest or weed control at 80 g/ha [6] was 80%. For the same compound, the pest or weed control at 20 g/ha [7] was 90%, the pest or weed control at 80 g/ha [7] was 100% and the pest or weed control at 20 g/ha [8] was 80%. The pest or weed control at 80 g/ha [8] was 90%, the pest or weed control at 20 g/ha ([9]; dosage 20 g/ha) was 80% and the pest or weed control at 80 g/ha [9] was 90%. For the same compound, the pest or weed control at 20 g/ha [10] was 80%, the pest or weed control at 80 g/ha [10] was 100% and the pest or weed control at 80 g/ha [11] was 90%. For the same compound, the pest or weed control at 20 g/ha [12] was 100%, the pest or weed control at 80 g/ha [12] was 100% and the pest or weed control at 20 g/ha [13] was 90%. The pest or weed control at 80 g/ha [13] was 100%, the pest or weed control at 20 g/ha [14] was 80% and the pest or weed control at 20 g/ha [16] was 100%. For the same compound, the pest or weed control at 20 g/ha [17] was 90%, the pest or weed control at 20 g/ha [18] was 80% and the pest or weed control at 20 g/ha [23] was 90%. For the same compound, the pest or weed control at 5 g/ha [21] was 80%, the pest or weed control at 20 g/ha [21] was 90% and the pest or weed control at 5 g/ha [22] was 90%. The pest or weed control at 20 g/ha [22] was 90%.
